Assay results taken from patent publication US20220274979A1 (Bayer Pharma Aktiengesellschaft, priority 2018, published 2022).

Key:
[1] = target: T1, hSOS1 (hSOS1-mediated nucleotide exchange of hK-RasG12C) (Homo sapiens, UniProt Q07889); assay: Biochemical Assay 2: hK-RasG12C activation assay by hSOS1 at high GTP concentration (HTRF nucleotide exchange); details: high GTP (50 μM GTP)
T1 construct: hSOS1 (amino acid 564-1049); made in house; host or cells: E. coli BL21 (DE3)
T1 sequence (Q07889 with tags, fused parts or gaps): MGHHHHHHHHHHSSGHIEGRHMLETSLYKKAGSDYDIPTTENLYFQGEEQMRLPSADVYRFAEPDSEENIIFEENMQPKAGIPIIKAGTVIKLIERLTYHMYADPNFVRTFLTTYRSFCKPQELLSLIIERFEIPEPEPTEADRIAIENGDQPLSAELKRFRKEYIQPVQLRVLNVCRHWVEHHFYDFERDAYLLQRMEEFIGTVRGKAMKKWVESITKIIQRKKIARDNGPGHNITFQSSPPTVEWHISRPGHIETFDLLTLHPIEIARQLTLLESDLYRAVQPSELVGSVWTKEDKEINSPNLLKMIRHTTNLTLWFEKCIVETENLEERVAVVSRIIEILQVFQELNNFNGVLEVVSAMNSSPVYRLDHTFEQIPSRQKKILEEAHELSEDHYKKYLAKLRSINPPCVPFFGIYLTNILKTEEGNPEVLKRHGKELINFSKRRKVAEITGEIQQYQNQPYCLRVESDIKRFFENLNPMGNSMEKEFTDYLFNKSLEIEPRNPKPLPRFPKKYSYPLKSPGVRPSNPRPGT
Text: Biochemical Assay 2: hK-RasG12C Activation Assay by hSOS1 at High GTP Concentration
This assay quantifies human SOS1-mediated nucleotide exchange of human K-Ras^G12C (hK-RasG12C) preloaded with a fluorescent […] and in presence of an excess of free GTP. Loaded hK-RasG12C generates a high HTRF-signal by energy transfer from antiGST-Terbium (FRET donor) bound to hK-Ras to the loaded fluorescent GDP analog (FRET-acceptor). hSOS1 activity exchanges the fluorescent GDP for non-fluorescent GTP and therefore leads to a reduction of the HTRF signal.
The fluorescent GDP-analog EDA-GDP-Dy647P1 (2′/3′-O-(2-Aminoethyl-carbamoyl)-guanosine-5′-diphosphate labelled with Dy647P1 (Dyomics GmbH, Germany)) was synthesized by Jena Biosciences GmbH (Germany) and supplied as a 1 mM aqueous solution.
Concentrations of protein batches used were optimized to be within the linear range of the HTRF signal.
Addition of 20 μl 1 M MgCl2 (Sigma) to final 40 mM and store on ice. Purification into buffer (10 mM HEPES pH 7.4 (Applichem), 150 mM NaCl (Sigma), 5 mM MgCl2 (Sigma)) by use of a PD-Minitrap desalting column (GE Healthcare). Concentration of 1 ml purified hK-Ras-GDP-Dy647 is approx. 4-5 μM.
(§1) The assay buffer contained 10 mM HEPES pH 7.4 (Applichem), 150 mM NaCl (Sigma), 5 mM MgCl2 (Sigma), 1 mM DTT (Thermofisher), 0.05% BSA Fraction V, pH 7.0, (ICN Biomedicals), 0.0025% (v/v) Igepal (Sigma).
A Ras working solution was prepared in assay buffer containing typically 80 nM loaded GST-hK-RasG12C-EDA-GDP-Dy647P1 and 2 nM antiGST-Tb (Cisbio, France).
Alternatively, the inhibitor control solution was prepared by supplementing the hSOS1 working solution with 20 μM of 6,7-dimethoxy-N-[(1R)-1-(1-naphthyl)ethyl]quinazolin-4-amine which was used to calibrate the assay.
(§2) Fifty nl of a 100-fold concentrated solution of the test compound in DMSO were transferred into a black microtiter test plate (384 or 1536, Greiner Bio-One, Germany) For this, either a Hummingbird liquid handler (Digilab, Mass., USA) or an Echo acoustic system (Labcyte, Calif., USA) was used.
(§3) All steps of the assay were performed at 20° C. A volume of 2.5 μl of the Ras working solution was added to all wells of the test plate using a Multidrop dispenser (Thermo Labsystems). After 2 min. preincubation, 2.5 μl of the hSOS1 working solution were added to all wells except for those wells at the side of the test plate that were subsequently filled with 2.5 μl of the inhibitor control solution. After 20 min. incubation the fluorescence was measured with a Pherastar (BMG, Germany) using the HTRF module (excitation 337 nm, emission 1:620 nm, emission 2:665 nm).
(§4) IC50 values were calculated by 4-Parameter fitting using a commercial software package (Genedata Screener, Switzerland).

[2] = target: T2, hSOS1 (hSOS1-mediated loading of hK-RasG12C-GDP) (Homo sapiens, UniProt Q07889); assay: Biochemical Assay 3: hK-RasG12C activation assay by hSOS1 (loading with fluorescent GTP analog, HTRF); details: no GTP
T2 construct: hSOS1 (amino acid 564-1049); made in house; host or cells: E. coli BL21 (DE3)
T2 sequence (Q07889 with tags, fused parts or gaps): T1 sequence (Q07889 with tags, fused parts or gaps)
Text: Biochemical Assay 3: hK-RasG12C Activation Assay by hSOS1
K-Ras is a small GTPase that can bind GDP and GTP. The guanine nucleotide exchange factor SOS1 catalyzes the activation of K-Ras by promoting the exchange of GDP to GTP. SOS1 binds to K-Ras-GDP thereby opening the GDP-binding pocket to facilitate GDP release. Rebinding of excess nucleotide leads to dissociation of the K-Ras-SOS1 intermediate complex leaving K-Ras loaded with the nucleotide.
This assay quantifies human SOS1-(hSOS1-)mediated loading of human K-Ras^G12C-GDP (hK-RasG12C-GDP) with a fluorescent GTP-analog. Detection of successful loading is achieved by measuring homogenous time-resolved fluorescence resonance energy transfer (HTRF) from antiGST-Terbium (FRET donor) bound to GST-hK-RasG12C (see below) to the loaded fluorescent GTP analog (FRET-acceptor).
The fluorescent GTP-analog EDA-GTP-Dy647P1 (2′/3′-O-(2-Aminoethyl-carbamoyl)-guanosine-5′-triphosphate labelled with Dy647P1 (Dyomics GmbH, Germany)) was synthesized by Jena Biosciences GmbH (Germany) and supplied as a 1 mM aqueous solution.
as §1
Concentrations of protein batches used were optimized to be within the linear range of the HTRF signal. A hRas working solution was prepared in assay buffer containing typically 100 nM GST-hK-RasG12C and 2 nM antiGST-Tb (Cisbio, France). A hSOS1 working solution was prepared in assay buffer containing typically 20 nM hSOS1 and 200 nM EDA-GTP-Dy647P1. An inhibitor control solution was prepared in assay buffer containing 200 nM EDA-GTP-Dy647P1 without hSOS1.
as §2
as §3, with “the hRas” for “the Ras”, “After 10” for “After 2”, “After […]” for “After 20 min.”, “emission 1: 620” for “emission 1:620”
as §4

Row | SMILES | IC50 [1] | IC50 [2]
1 | Cc1nc(N[C@H](C)c2cccc(Br)c2)c2nc(Oc3ccccc3)ncc2n1 [Example 25, N-[(1R)-1-(3-bromophenyl)ethyl]-2-methyl-6-phenoxypyrimido[5,4-d]pyrimidin-4-amine] | > 20 µM | > 20 µM
2 | COCCOc1ncc2nc(C)nc(N[C@H](C)c3cccc(Br)c3)c2n1 [Example 26, N-[(1R)-1-(3-bromophenyl)ethyl]-6-(2-methoxyethoxy)-2-methylpyrimido[5,4-d]pyrimidin-4-amine] | 3.04 µM | > 20 µM
3 | Cc1nc(N[C@H](C)c2cccc(Br)c2)c2nc(N3CCOCC3)ccc2n1 [Example 27, N-[(1R)-1-(3-bromophenyl)ethyl]-2-methyl-6-(morpholin-4-yl)pyrido[3,2-d]pyrimidin-4-amine] | 1.84 µM | 10.6 µM
4 | COc1ccc2nc(C)nc(N[C@H](C)c3cccc(Br)c3)c2n1 [Example 28, N-[(1R)-1-(3-bromophenyl)ethyl]-6-methoxy-2-methylpyrido[3,2-d]pyrimidin-4-amine] | > 20 µM | > 20 µM
5 | CCOc1ccc2nc(C)nc(N[C@H](C)c3cccc(Br)c3)c2n1 [Example 29, N-[(1R)-1-(3-bromophenyl)ethyl]-6-ethoxy-2-methylpyrido[3,2-d]pyrimidin-4-amine] | > 20 µM | > 20 µM
6 | COCCOc1ccc2nc(C)nc(N[C@H](C)c3cccc(Br)c3)c2n1 [Example 30, N-[(1R)-1-(3-bromophenyl)ethyl]-6-(2-methoxyethoxy)-2-methylpyrido[3,2-d]pyrimidin-4-amine] | 5.74 µM | ≥ 27.8 µM
7 | Cc1nc(N[C@H](C)c2cccc(Br)c2)c2nc(N(C)C)ccc2n1 [Example 31] | ≥ 40 µM | > 20 µM
8 | Cc1nc(N[C@H](C)c2cccc(Br)c2)c2nc(Oc3ccccc3)ccc2n1 [Example 32, N-[(1R)-1-(3-bromophenyl)ethyl]-2-methyl-6-phenoxypyrido[3,2-d]pyrimidin-4-amine] | > 20 µM | > 20 µM
9 | Cc1nc(N[C@H](C)c2cccc(Br)c2)c2nc(OCc3ccccc3)ccc2n1 [Example 33, 6-(benzyloxy)-N-[(1R)-1-(3-bromophenyl)ethyl]-2-methylpyrido[3,2-d]pyrimidin-4-amine] | > 20 µM | > 20 µM
10 | Cc1nc(N[C@H](C)c2cccc(Br)c2)c2cc(F)ncc2n1 [Example 34, N-[(1R)-1-(3-bromophenyl)ethyl]-6-fluoro-2-methylpyrido[3,4-d]pyrimidin-4-amine] | > 20 µM | > 20 µM
11 | Cc1nc(NC(C)c2ccc(Br)s2)c2cc(F)ncc2n1 (centres unmarked) [Example 35] | > 20 µM | > 20 µM
12 | CNCc1ccccc1-c1ccc(C(C)Nc2nc(C)nc3cnc(F)cc23)s1 (centres unmarked) [Example 36, 6-fluoro-2-methyl-N-[1-(5-{2-[(methylamino)methyl]phenyl}thiophen-2-yl)ethyl]pyrido[3,4-d]pyrimidin-4-amine] | 19 µM | > 20 µM
13 | CNCc1ccccc1-c1ccc(C(C)Nc2nc(C)nc3cnc(Oc4ccc(N5CCCC5=O)cc4)cc23)s1 (centres unmarked) [Example 38, 1-{4-[(2-methyl-4-{[1-(5-{2-[(methylamino)methyl]phenyl}thiophen-2-yl)ethyl]amino}pyrido[3,4-d]pyrimidin-6-yl)oxy]phenyl}pyrrolidin-2-one] | 0.601 µM | 0.269 µM
14 | Cc1nc(N[C@H](C)c2cccc(Br)c2)c2cc(NCCN3CCOCC3)ncc2n1 [Example 39] | 1.36 µM | 1.64 µM
15 | Cc1nc(N[C@H](C)c2cccc(Br)c2)c2cc(Oc3cccc(O)c3)ncc2n1 [Example 40, 3-[(4-{[(1R)-1-(3-bromophenyl)ethyl]amino}-2-methylpyrido[3,4-d]pyrimidin-6-yl)oxy]phenol] | 8.66 µM | > 20 µM
16 | Cc1nc(N[C@H](C)c2cccc(Br)c2)c2cc(Oc3cccc(C4=NCCN4C)c3)ncc2n1 [Example 41, N-[(1R)-1-(3-bromophenyl)ethyl]-2-methyl-6-[3-(1-methyl-4,5-dihydro-1H-imidazol-2-yl)phenoxy]pyrido[3,4-d]pyrimidin-4-amine] | 2.31 µM | 3.88 µM
17 | Cc1nc(N[C@H](C)c2cccc(Br)c2)c2cc(N3CCN(Cc4cccnc4)CC3)ncc2n1 [Example 43, N-[(1R)-1-(3-bromophenyl)ethyl]-2-methyl-6-[4-(pyridin-3-ylmethyl)piperazin-1-yl]pyrido[3,4-d]pyrimidin-4-amine] | 0.38 µM | 0.446 µM
18 | CC(=O)NCCNc1cc2c(N[C@H](C)c3cccc(Br)c3)nc(C)nc2cn1 [Example 44, N-{2-[(4-{[(1R)-1-(3-bromophenyl)ethyl]amino}-2-methylpyrido[3,4-d]pyrimidin-6-yl)amino]ethyl}acetamide] | 1.06 µM | 1.64 µM
19 | Cc1nc(N[C@H](C)c2cccc(Br)c2)c2cc(N3CCNC(=O)C3)ncc2n1 [Example 45] | 0.506 µM | 0.459 µM
20 | Cc1nc(N[C@H](C)c2cccc(Br)c2)c2cc(NC3CCOCC3)ncc2n1 [Example 46] | 4.22 µM | 12.8 µM
21 | Cc1nc(NC(C)c2ccc(-c3ccccc3CN(C)C)s2)c2cc(NCCN3CCOCC3)ncc2n1 (centres unmarked) [Example 48] | 0.141 µM | 0.114 µM
22 | Cc1nc(N[C@H](C)c2cccc(Br)c2)c2cc(NCCn3cccn3)ncc2n1 [Example 49, N4-[(1R)-1-(3-bromophenl)pethyl]-2-methyl-N6-[2-(1H-pyrazol-1-yl)ethyl]pyrido[3,4-d]pyrimidine-4,6-diamine] | 3.63 µM | 6.99 µM
